{"source": "ChEMBL document CHEMBL1201862", "about": "“PubChem BioAssay data set” (2004)", "key": {"Protein RecA": {"target": "T1, Protein RecA (Mycobacterium tuberculosis, UniProt P9WHJ3)", "T1 sequence (P9WHJ3 whole entry)": "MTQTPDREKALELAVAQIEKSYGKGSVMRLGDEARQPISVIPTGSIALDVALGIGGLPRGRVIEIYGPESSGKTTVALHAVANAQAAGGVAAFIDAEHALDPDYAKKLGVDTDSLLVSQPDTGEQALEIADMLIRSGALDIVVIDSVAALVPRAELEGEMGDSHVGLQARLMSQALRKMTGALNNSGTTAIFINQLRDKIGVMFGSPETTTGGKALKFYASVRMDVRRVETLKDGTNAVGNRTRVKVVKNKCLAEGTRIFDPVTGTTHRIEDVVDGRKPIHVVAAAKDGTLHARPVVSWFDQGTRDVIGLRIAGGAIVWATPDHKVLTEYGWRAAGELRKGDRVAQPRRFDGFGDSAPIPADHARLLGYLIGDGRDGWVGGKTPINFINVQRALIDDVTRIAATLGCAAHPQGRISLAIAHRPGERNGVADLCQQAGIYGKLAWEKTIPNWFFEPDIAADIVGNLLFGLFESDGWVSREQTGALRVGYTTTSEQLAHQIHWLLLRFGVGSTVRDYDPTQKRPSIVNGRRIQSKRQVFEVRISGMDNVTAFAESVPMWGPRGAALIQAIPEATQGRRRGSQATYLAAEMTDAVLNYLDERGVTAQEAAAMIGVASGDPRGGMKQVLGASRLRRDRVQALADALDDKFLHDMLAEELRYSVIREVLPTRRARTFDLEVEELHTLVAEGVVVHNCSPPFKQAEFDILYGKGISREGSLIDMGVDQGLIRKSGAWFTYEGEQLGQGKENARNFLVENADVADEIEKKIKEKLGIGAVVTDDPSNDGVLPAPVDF", "experiment": "Fluorescence Cell-Free Homogeneous Dose Retest to Identify Inhibitors of RecA-Intein Splicing Activity. [Related pubchem assays (depositor defined):AID2097, AID2223, AID489010, AID492950]", "type": "functional"}, "Coagulation factor XII": {"target": "T2, Coagulation factor XII (Homo sapiens, UniProt P00748)", "T2 sequence (P00748 whole entry)": "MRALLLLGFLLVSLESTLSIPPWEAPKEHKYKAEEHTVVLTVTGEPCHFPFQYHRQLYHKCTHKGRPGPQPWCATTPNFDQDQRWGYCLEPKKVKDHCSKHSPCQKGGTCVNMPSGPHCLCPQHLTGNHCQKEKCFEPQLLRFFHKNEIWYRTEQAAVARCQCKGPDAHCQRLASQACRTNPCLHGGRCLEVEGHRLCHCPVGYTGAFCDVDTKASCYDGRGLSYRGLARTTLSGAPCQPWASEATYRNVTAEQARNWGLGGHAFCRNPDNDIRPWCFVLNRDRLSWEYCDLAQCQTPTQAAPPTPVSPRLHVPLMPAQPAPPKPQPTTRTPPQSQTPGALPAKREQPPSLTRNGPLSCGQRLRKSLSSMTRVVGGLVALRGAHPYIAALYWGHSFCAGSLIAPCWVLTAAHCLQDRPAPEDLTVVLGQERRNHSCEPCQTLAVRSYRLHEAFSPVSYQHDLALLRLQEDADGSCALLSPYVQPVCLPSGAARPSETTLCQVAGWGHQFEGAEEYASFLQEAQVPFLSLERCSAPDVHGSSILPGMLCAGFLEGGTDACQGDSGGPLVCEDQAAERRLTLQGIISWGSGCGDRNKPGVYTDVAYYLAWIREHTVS", "experiment": "Factor XIIa Dose Response Confirmation from Single Well HTS. [Related pubchem assays (depositor defined):AID701]", "type": "functional"}, "[1]": {"target": "T3, Replicative DNA helicase DnaB (Mycobacterium tuberculosis, UniProt P9WMR3)", "T3 sequence (P9WMR3 whole entry)": "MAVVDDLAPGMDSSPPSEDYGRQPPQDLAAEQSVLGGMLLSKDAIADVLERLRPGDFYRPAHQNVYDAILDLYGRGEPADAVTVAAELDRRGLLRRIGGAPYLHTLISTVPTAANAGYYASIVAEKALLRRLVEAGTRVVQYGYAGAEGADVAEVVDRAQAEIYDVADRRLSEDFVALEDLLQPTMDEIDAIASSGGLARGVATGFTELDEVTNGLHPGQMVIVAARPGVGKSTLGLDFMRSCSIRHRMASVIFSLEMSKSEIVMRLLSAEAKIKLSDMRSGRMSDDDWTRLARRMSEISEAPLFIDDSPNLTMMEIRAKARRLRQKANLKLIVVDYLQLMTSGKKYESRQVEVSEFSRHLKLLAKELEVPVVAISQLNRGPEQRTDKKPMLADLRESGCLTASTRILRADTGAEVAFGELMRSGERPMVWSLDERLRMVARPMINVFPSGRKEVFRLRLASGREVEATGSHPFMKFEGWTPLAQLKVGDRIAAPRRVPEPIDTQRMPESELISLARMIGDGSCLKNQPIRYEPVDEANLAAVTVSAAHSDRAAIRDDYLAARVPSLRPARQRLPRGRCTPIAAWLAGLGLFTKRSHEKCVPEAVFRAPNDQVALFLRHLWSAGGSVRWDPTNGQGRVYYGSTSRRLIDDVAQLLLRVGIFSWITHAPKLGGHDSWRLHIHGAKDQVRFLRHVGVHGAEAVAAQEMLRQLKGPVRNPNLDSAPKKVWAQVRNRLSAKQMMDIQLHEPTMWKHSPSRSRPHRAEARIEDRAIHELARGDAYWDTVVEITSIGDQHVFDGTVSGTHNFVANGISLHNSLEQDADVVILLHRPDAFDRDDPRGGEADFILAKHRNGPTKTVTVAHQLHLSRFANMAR", "experiment": "DnaB intein splicing inhibitors, dose response, biochemical, cell-free fluorescence (AID 449749)", "type": "functional"}, "[2]": {"target": "T4, Peroxisome proliferator-activated receptor gamma (Homo sapiens, UniProt P37231)", "T4 sequence (P37231 whole entry)": "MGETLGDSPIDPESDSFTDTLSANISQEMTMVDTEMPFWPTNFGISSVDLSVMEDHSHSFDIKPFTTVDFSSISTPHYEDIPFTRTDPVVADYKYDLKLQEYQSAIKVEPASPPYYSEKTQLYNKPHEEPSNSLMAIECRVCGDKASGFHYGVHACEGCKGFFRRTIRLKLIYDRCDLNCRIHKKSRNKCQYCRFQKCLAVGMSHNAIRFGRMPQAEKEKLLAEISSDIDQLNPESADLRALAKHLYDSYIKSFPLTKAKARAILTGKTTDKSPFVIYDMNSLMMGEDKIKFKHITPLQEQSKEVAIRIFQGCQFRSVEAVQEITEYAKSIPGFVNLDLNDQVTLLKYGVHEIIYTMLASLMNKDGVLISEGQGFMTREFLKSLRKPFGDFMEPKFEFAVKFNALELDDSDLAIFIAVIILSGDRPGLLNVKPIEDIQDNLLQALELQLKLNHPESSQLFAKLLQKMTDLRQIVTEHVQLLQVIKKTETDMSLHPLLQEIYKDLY", "experiment": "competitive ligand displacement at PPARg – biochemical, TR-FRET, LanthaScreen, PPARg partial agonist project, dose response (AID 504446)"}, "[3]": {"target": "Peroxisome proliferator-activated receptor alpha (Homo sapiens, UniProt Q07869)", "sequence (Q07869 whole entry)": "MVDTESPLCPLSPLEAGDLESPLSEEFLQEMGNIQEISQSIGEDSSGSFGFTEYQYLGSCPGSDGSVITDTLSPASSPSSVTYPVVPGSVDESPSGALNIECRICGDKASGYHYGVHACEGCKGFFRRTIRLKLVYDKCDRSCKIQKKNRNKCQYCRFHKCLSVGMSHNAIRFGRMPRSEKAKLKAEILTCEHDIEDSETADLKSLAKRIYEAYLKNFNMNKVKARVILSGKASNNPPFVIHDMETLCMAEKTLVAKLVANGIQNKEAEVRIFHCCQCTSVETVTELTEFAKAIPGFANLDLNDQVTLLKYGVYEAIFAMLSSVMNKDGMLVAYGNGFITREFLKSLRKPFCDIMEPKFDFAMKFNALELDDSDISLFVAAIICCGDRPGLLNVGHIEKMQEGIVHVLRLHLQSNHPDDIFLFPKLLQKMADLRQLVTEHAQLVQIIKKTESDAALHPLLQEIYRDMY", "experiment": "Late stage assay provider counterscreen for partial agonists of the peroxisome proliferator-activated receptor gamma (PPARg): Luminescence-based cell-based dose response assay for partial agonists of the peroxisome proliferator-activated receptor alpha (PPARA). [Related pubchem assays (depositor defined):AID1051, AID1300, AID1319, AID1679, AID1808, AID504446, AID504447, AID504452, AID504453, AID631]", "type": "functional"}, "[4]": {"target": "T4, Peroxisome proliferator-activated receptor gamma", "experiment": "PPARg transcriptional activation, reporter cells – cell-based, luminescence, assay provider, dose response (AID 504447)", "type": "functional"}, "[5]": {"target": "Sphingosine 1-phosphate receptor 4 (Homo sapiens, UniProt O95977)", "sequence (O95977 whole entry)": "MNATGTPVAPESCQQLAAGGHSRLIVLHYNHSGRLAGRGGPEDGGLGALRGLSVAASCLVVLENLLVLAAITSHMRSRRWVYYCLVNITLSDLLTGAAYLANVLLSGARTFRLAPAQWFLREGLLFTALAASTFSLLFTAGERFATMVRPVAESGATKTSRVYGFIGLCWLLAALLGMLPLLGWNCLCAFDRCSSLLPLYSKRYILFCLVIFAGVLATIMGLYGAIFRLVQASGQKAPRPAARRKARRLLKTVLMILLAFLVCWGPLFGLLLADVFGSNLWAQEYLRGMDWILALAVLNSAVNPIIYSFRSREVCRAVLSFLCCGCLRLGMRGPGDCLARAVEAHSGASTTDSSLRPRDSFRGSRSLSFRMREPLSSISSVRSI", "experiment": "Late-stage fluorescence dose response cell-based assay to identify agonists of the Sphingosine 1-Phosphate Receptor 4 (S1P4): purchased compounds EC50. [Related pubchem assays (depositor defined):AID1509, AID1523, AID1563, AID1686, AID1701, AID1801]", "type": "functional"}, "[6]": {"target": "T5, Dual specificity protein phosphatase 3 (Homo sapiens, UniProt P51452)", "T5 sequence (P51452 whole entry)": "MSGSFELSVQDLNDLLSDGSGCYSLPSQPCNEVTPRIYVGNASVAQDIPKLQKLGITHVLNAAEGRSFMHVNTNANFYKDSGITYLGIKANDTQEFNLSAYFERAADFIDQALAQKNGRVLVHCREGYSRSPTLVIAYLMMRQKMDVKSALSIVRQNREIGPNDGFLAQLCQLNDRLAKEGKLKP", "experiment": "SAR VHR1 Fluorescent Assay for In Vitro dose response studies. [Related pubchem assays (depositor defined):AID1654, AID1661, AID1878, AID1992, AID2004, AID2070, AID2085]", "type": "functional"}, "[7]": {"target": "T6, Tyrosine-protein phosphatase non-receptor type 7 (Homo sapiens, UniProt P35236)", "T6 sequence (P35236 whole entry)": "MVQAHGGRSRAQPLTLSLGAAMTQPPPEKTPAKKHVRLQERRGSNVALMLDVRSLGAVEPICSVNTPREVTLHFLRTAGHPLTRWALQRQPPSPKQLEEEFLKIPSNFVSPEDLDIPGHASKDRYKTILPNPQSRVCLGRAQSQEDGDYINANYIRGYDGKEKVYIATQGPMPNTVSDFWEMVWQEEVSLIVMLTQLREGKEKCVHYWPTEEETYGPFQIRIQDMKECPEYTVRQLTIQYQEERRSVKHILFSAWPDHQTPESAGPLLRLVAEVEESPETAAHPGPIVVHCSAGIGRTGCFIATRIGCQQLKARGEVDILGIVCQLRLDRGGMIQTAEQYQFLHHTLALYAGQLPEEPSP", "experiment": "redox-active compounds inhibiting HePTP phosphatase – biochemical, fluorescence, mechanism study (AID 2068)", "type": "functional"}, "[8]": {"target": "T5, Dual specificity protein phosphatase 3", "experiment": "SAR VHR1 Fluorescent Assay for In Vitro dose response studies Set 2. [Related pubchem assays (depositor defined):AID1654, AID1661, AID1878]", "type": "functional"}, "[9]": {"target": "T5, Dual specificity protein phosphatase 3", "experiment": "SAR VHR1 absorbance Assay for In Vitro dose response studies. [Related pubchem assays (depositor defined):AID1654, AID1661, AID1878, AID1992, AID2004]"}, "[10]": {"target": "T7, Dual specificity protein phosphatase 6 (Rattus norvegicus, UniProt Q64346)", "T7 sequence (Q64346 whole entry)": "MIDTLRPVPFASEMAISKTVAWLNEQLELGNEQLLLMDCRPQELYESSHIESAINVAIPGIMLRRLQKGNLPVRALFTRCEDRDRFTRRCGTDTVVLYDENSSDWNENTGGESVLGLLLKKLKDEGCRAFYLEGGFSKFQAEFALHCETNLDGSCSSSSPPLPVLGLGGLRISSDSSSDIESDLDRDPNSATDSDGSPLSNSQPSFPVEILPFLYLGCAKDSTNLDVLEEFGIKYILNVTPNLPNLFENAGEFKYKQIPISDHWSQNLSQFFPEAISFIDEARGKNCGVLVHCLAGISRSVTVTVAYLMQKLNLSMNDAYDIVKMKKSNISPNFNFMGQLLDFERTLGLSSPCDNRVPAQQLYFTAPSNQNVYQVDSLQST", "type": "functional"}}, "note": "The source made the active and inactive calls."}
{"smiles": "O=C(Oc1cccc(-n2cnnn2)c1)c1ccco1", "values": [{"measurement": "EC50", "setting": "Protein RecA", "value": "15.1 µM (active)"}, {"measurement": "IC50", "setting": "Coagulation factor XII", "value": "12.4 µM (active)"}, {"measurement": "AC50", "setting": "[1]", "value": "23.8 µM (active)"}]}
{"smiles": "O=C(O)CCN1C(=O)/C(=C/c2cccc(OCc3ccc(F)cc3)c2)SC1=S", "values": [{"measurement": "IC50", "setting": "[2]", "value": "1.9 µM (active)"}, {"measurement": "EC50", "setting": "[3]", "value": "0.243 µM (active)"}, {"measurement": "EC50", "setting": "[4]", "value": "3 µM (active)"}]}
{"smiles": "Cc1ccc(OCC(=O)NC(C)c2ccc(Cl)cc2Cl)c([N+](=O)[O-])n1", "note": "(configuration not stated)", "values": [{"measurement": "EC50", "setting": "[5]", "value": "> 50 µM (inactive)"}]}
{"smiles": "NS(=O)(=O)c1cc(C(=O)NC2CCCc3ccccc32)ccc1Cl", "note": "(configuration not stated)", "values": [{"measurement": "IC50", "setting": "[6]", "value": "> 100 µM (inactive)"}, {"measurement": "IC50", "setting": "[7]", "value": "> 100 µM (inactive)"}, {"measurement": "IC50", "setting": "[8]", "value": "> 100 µM (inactive)"}, {"measurement": "IC50", "setting": "[9]", "value": "> 100 µM (inactive)"}, {"measurement": "IC50", "setting": "[10]", "value": "> 100 µM (inactive)"}]}
